In patent US4994440A, “Method for the treatment of renal cell carcinoma” (priority 1989, dated 1991):

Test system: metastatic renal cell carcinoma
Assay: Treatment of patients with metastatic renal cell carcinoma by 1 hour infusion of the liposomal composition
Type: in vivo, man
Conditions: a patient with renal cell carcinoma with multiple small pulmonary metastases
Procedure: 12 patients diagnosed as having metastatic renal cell carcinoma were given the liposomal composition in accordance with Example 2 at various dosage levels of the active ingredient by 1 hour infusion in 50 ml of isotonic saline through a safety filter twice a week for a total of 8 doses.

In the case of CCCCCCCCCCCCCCCC(=O)OCC(COP(=O)([O-])OCCNC(=O)C(C)NC(=O)CCC(NC(=O)C(C)NC(=O)C(C)OC1C(O)C(CO)OC(O)C1NC(C)=O)C(N)=O)OC(=O)CCCCCCCCCCCCCCC.[Na+] [N-acetylmuramyl-L-alanyl-D-isoglutaminyl-L-alanine-2-(1,2-dipalmitoyl-sn-glycero-3-hydroxyphosphoryloxy)ethylamide monosodium salt], the size of lesions is reported as “reduce the size of lesions”.
